In patent US5525626A (priority 1989, dated 1996):
pIC50: −log10 of the molar value.

Key:
Assay in all cases: 3H-thymidine assay
Assay type in all cases: cell-based
G-361 melanoma cells = conditions: Homo sapiens, G-361
CAKI-2 cells = conditions: Homo sapiens, CAKI-2
Method: (§1) The cell lines were cultivated as indicated in Example 1.
(§2) The antiproliferative effect of the 1,2-benzopyrone derivatives according to the invention on the tumor cell lines in each case was shown with the help of the ^3 H-thymidine insertion and with reference to growth curves.
In a 24-well-plate, in each case 10^4 cells of the line to be investigated were inoculated per well. Approximately 48 hours later the cells were half-confluent; the medium was then changed and replaced by a medium containing the active substance in question (cf Table 3). […] Subsequently the cultures were washed twice with ice-cold PBS and the high-molecular-weight ^3 H-radioactivity was precipitated with 5% trichloroacetic acid for one hour at 4° C. After the washing of the cells in PBS the ^3 H-radioactivity was solubilized with 0.3M NaOH and measured in the counter. The growth-inhibition was determined by comparing the thymidine insertion of the cells treated with active substance with untreated cells.
(§3) The active substance concentration in each case was so chosen that ^3 H-thymidine insertion was 50% inhibited. The active substance concentrations used under this aspect for the active substances and cell lines in each case are given in table 4 below in μM/ml, […]

HCV cells = tested on: HCV cells
K-562 leukemic cells = conditions: Homo sapiens, K562
Method: as §1, §2
(§4) In a 24-well-plate, in each case 10^4 cells of the line to be investigated were inoculated per well. Approximately 48 hours later the cells were half-confluent; the medium was then changed and replaced by a medium containing the active substance in question (cf Table 3). After a further 48 hours 0.25 μCi ^3 H-thymidine (Ammersham) was added to each well and the cells were incubated for a further 24 hours. Subsequently the cultures were washed twice with ice-cold PBS and the high-molecular-weight ^3 H-radioactivity was precipitated with 5% trichloroacetic acid for one hour at 4° C. After the washing of the cells in PBS the ^3 H-radioactivity was solubilized with 0.3M NaOH and measured in the counter. The growth-inhibition was determined by comparing the thymidine insertion of the cells treated with active substance with untreated cells.
as §3

CAKI-1 cells = conditions: Homo sapiens, CAKI-1
Method: as §1, §2, §4, §3

[1] = tested on: MCF-7 breast cancer cells; conditions: Homo sapiens, MCF7
Method: as §1, §2, §4, §3

At T 20 = conditions: Mus musculus, AtT20
Method: as §1, §2, §4, §3

[2] = tested on: Tp 483 MG glioblastoma cells
[3] = tested on: Tp 242 MG glioblastoma cells; conditions: Homo sapiens
[4] = 1 μM/ml, read-out: 3H-thymidine tracer (%) of control
[5] = 2 μM/ml, read-out: 3H-thymidine tracer (%) of control
[6] = 4 μM/ml, read-out: 3H-thymidine tracer (%) of control
[7] = 8 μM/ml, read-out: 3H-thymidine tracer (%) of control
[8] = 16 μM/ml, read-out: 3H-thymidine tracer (%) of control
[9] = 25 μM/ml, read-out: 3H-thymidine tracer (%) of control
[10] = 50 μM/ml, read-out: 3H-thymidine tracer (%) of control
[11] = 100 μM/ml, read-out: 3H-thymidine tracer (%) of control
[12] = 250 μM/ml, read-out: 3H-thymidine tracer (%) of control
[13] = 500 μM/ml, read-out: 3H-thymidine tracer (%) of control
[14] = Table 4, *: maximum usable dosage, no 50% inhibition, read-out: active substance concentration at which 3H-thymidine insertion was 50% inhibited
[15] = 150 μM/ml, read-out: 3H-thymidine tracer (%) of control
[16] = read-out: 3H-thymidine tracer (%) of control
[17] = Table 4, read-out: active substance concentration at which 3H-thymidine insertion was 50% inhibited
[18] = 1 μM/ml, read-out: 3H-thymidine insertion (%) of control
[19] = 2 μM/ml, read-out: 3H-thymidine insertion (%) of control
[20] = 4 μM/ml, read-out: 3H-thymidine insertion (%) of control
[21] = 8 μM/ml, read-out: 3H-thymidine insertion (%) of control
[22] = 16 μM/ml, read-out: 3H-thymidine insertion (%) of control
[23] = 25 μM/ml, read-out: 3H-thymidine insertion (%) of control
[24] = 50 μM/ml, read-out: 3H-thymidine insertion (%) of control
[25] = 100 μM/ml, read-out: 3H-thymidine insertion (%) of control
[26] = 250 μM/ml, read-out: 3H-thymidine insertion (%) of control
[27] = 500 μM/ml, read-out: 3H-thymidine insertion (%) of control

O=c1ccc2cc(O)c(O)cc2o1 [Esculetin, 6,7-hydroxy-1,2-benzopyrone]
activity at 1 µM (G-361 melanoma cells; [4]): 97% | activity at 2 µM (G-361 melanoma cells; [5]): 93% | activity at 4 µM (G-361 melanoma cells; [6]): 90% | activity at 8 µM (G-361 melanoma cells; [7]): 88% | activity at 16 µM (G-361 melanoma cells; [8]): 72% | activity at 25 µM (G-361 melanoma cells; [9]): 68% | activity at 50 µM (G-361 melanoma cells; [10]): 60% | activity at 100 µM (G-361 melanoma cells; [11]): 58% | activity at 250 µM (G-361 melanoma cells; [12]): 52% | activity at 500 µM (G-361 melanoma cells; [13]): 49% | pIC50 (G-361 melanoma cells; [14]): 3.30 | activity at 1 µM (CAKI-2 cells; [4]): 98% | activity at 2 µM (CAKI-2 cells; [5]): 94% | activity at 4 µM (CAKI-2 cells; [6]): 90% | activity at 8 µM (CAKI-2 cells; [7]): 87% | activity at 16 µM (CAKI-2 cells; [8]): 82% | activity at 25 µM (CAKI-2 cells; [9]): 69% | activity at 50 µM (CAKI-2 cells; [10]): 65% | activity at 100 µM (CAKI-2 cells; [11]): 54% | activity at 150 µM (CAKI-2 cells; [15]): 53% | activity at 500 µM (CAKI-2 cells; [13]): 50% | pIC50 (CAKI-2 cells; [14]): 3.30 | activity at 1 µM (HCV cells; [16]): 99% | activity at 2 µM (HCV cells; [16]): 94% | activity at 4 µM (HCV cells; [16]): 87% | activity at 8 µM (HCV cells; [16]): 83% | activity at 16 µM (HCV cells; [16]): 78% | activity at 25 µM (HCV cells; [16]): 76% | activity at 50 µM (HCV cells; [16]): 71% | activity at 250 µM (HCV cells; [16]): 64% | activity at 500 µM (HCV cells; [16]): 62% | pIC50 (HCV cells; read-out: active substance concentration at which 3H-thymidine insertion was 50% inhibited): < 3.30 | activity at 1 µM (K-562 leukemic cells; [4]): 97% | activity at 2 µM (K-562 leukemic cells; [5]): 95% | activity at 4 µM (K-562 leukemic cells; [6]): 84% | activity at 8 µM (K-562 leukemic cells; [7]): 77% | activity at 16 µM (K-562 leukemic cells; [8]): 62% | activity at 25 µM (K-562 leukemic cells; [9]): 58% | activity at 50 µM (K-562 leukemic cells; [10]): 50% | activity at 100 µM (K-562 leukemic cells; [11]): 47% | activity at 250 µM (K-562 leukemic cells; [12]): 44% | activity at 500 µM (K-562 leukemic cells; [13]): 31% | pIC50 (K-562 leukemic cells; [17]): 4.30 | activity at 1 µM (CAKI-1 cells; [4]): 96% | activity at 2 µM (CAKI-1 cells; [5]): 93% | activity at 4 µM (CAKI-1 cells; [6]): 88% | activity at 8 µM (CAKI-1 cells; [7]): 80% | activity at 16 µM (CAKI-1 cells; [8]): 62% | activity at 25 µM (CAKI-1 cells; [9]): 58% | activity at 50 µM (CAKI-1 cells; [10]): 53% | activity at 100 µM (CAKI-1 cells; [11]): 45% | activity at 150 µM (CAKI-1 cells; [15]): 40% | activity at 500 µM (CAKI-1 cells; [13]): 32% | pIC50 (CAKI-1 cells; [14]): 4.30 | activity at 1 µM [1, 4]: 100% | activity at 2 µM [1, 5]: 98% | activity at 4 µM [1, 6]: 92% | activity at 8 µM [1, 7]: 85% | activity at 16 µM [1, 8]: 76% | activity at 25 µM [1, 9]: 69% | activity at 50 µM [1, 10]: 64% | activity at 100 µM [1, 11]: 58% | activity at 250 µM [1, 12]: 50% | activity at 500 µM [1, 13]: 42% | pIC50 [1, 14]: 3.60 | activity at 1 µM (At T 20; [4]): 93% | activity at 2 µM (At T 20; [5]): 89% | activity at 4 µM (At T 20; [6]): 86% | activity at 8 µM (At T 20; [7]): 75% | activity at 16 µM (At T 20; [8]): 75% | activity at 25 µM (At T 20; [9]): 67% | activity at 50 µM (At T 20; [10]): 62% | activity at 100 µM (At T 20; [11]): 55% | activity at 250 µM (At T 20; [12]): 49% | activity at 500 µM (At T 20; [13]): 44% | pIC50 (At T 20; [17]): 3.60 | activity at 1 µM [2, 18]: 98% | activity at 2 µM [2, 19]: 94% | activity at 4 µM [2, 20]: 85% | activity at 8 µM [2, 21]: 77% | activity at 16 µM [2, 22]: 73% | activity at 25 µM [2, 23]: 69% | activity at 50 µM [2, 24]: 62% | activity at 100 µM [2, 25]: 55% | activity at 250 µM [2, 26]: 39% | activity at 500 µM [2, 27]: 28% | pIC50 [2, 17]: 3.82 | activity at 1 µM [3, 18]: 96% | activity at 2 µM [3, 19]: 96% | activity at 4 µM [3, 20]: 89% | activity at 8 µM [3, 21]: 87% | activity at 16 µM [3, 22]: 75% | activity at 25 µM [3, 23]: 72% | activity at 50 µM [3, 24]: 60% | activity at 100 µM [3, 25]: 44% | activity at 250 µM [3, 26]: 32% | activity at 500 µM [3, 27]: 21% | pIC50 [3, 17]: 4.12
